Publication PMC11237774, “On-target, dual aminopeptidase inhibition provides cross-species antimalarial activity” (mBio, 2024)
Where two headings read alike, the source gives them in different places.

What was measured:
PfA-M1 = target: T1, PfA-M1 (Plasmodium falciparum, UniProt O96935); assay: Recombinant aminopeptidase fluorescence assay (H-Leu-NHMec); format: biochemical, P. falciparum
T1 construct: made in house
Experimental: (§1) Inhibition of aminopeptidase activity assays were performed against nine aminopeptidases: the M1 alanyl and M17 leucyl aminopeptidases from P. falciparum (PfA-M1; PfA-M17), P. vivax (Pv-M1; Pv-M17), and P. berghei (Pb-M1; Pb-M17), and three human M1 homologs: LTA4H (OriGene TP307617), ERAP1 (OriGene TP314469), and ERAP2 (Creative BioMart ERAP2-304H). The Plasmodium enzymes were produced recombinantly as described previously ([16], [17]), and the human recombinant enzymes were purchased from commercial suppliers as indicated.
(§2) The concentration of H-Leu-NHMec in the assay was held constant for each enzyme and ranged from 10 to 100 µM, depending on the enzyme. Reactions were measured at 37°C in white 384-well plates in a total volume of 25 or 50 µL using a spectrofluorimeter (BMG FLUOstar) with excitation at 355 nm and emission at 460 nm. The fluorescence signal was continuously monitored until a final steady-state velocity, v, was obtained. Inhibition constants were calculated from biological triplicates made from three different protein preparations.
(§3) Substrate concentrations were selected to allow sensitive detection of enzyme activity while not exceeding the Km for each enzyme. A compound concentration range was selected to obtain a complete inhibition curve (0%–100 %) in biological triplicate. Where possible, the Ki values were calculated by plotting the initial rates versus inhibitor concentration and fitting to the Morrison equation for tight-binding inhibitors in GraphPad Prism (V.8.4.1; non-linear regression method).

Pv-M1 = Pv-M1 (Plasmodium vivax, UniProt A5JZA9); assay: as above; format: biochemical, P. vivax
Experimental: as §1, §2, §3

Pb-M1 = Pb-M1 (Plasmodium berghei, UniProt A0A509ATR4); assay: as above; format: biochemical
Experimental: as §1, §2, §3

[1] = system: PfNF54-s16-GFP early (I–III) stage gametocytes; assay: Image-based gametocyte viability assay; format: cell-based, P. falciparum; settings: Plasmodium falciparum; stages I–III, 72 h; read-out: IC50 Early-stage Gametocytes (mean ± SD)
Experimental: Viability assays were performed as described previously ([32], [33]) against PfNF54-s16-GFP early(I–III), late (IV–V), and mature (V) stage gametocytes. Gametocytes were assessed at the appropriate time points following gametogenesis; early stage (day 2), late stage (day 8), and mature stage (day 12). Compounds diluted in 4% DMSO were transferred into 384-well imaging plates; gametocytes prepared as described previously (35) were added, and plates were incubated for 72 h in 5% CO2, 5% O2, and 60% humidity at 37°C. After 72 h incubation, 5 µL of MitoTracker Red CMH2XRos in phosphate buffered saline (PBS) was added per well, and plates were incubated overnight. Image acquisition and analysis were undertaken on the Opera QEHS micro-plate confocal imaging system. An Acapella-based script using the CMH2XRos fluorescent signal and the GFP-designated object quantifying viable stage-dependent parasite morphology identified gametocytes. Gametocyte viability was calculated as a percentage of the positive (5 µM puromycin) and negative (0.4% DMSO) controls. IC50 values were calculated using a 4-parameter log dose, non-linear regression analysis, with sigmoidal dose response (variable slope) curve fit using GraphPad Prism (ver 4.0). No constraints were used in the curve fit. Chloroquine, artesunate, pyronaridine, pyrimethamine, dihydroartemisinin (DHA), and methylene blue were used as control compounds. Experiments were performed as two or three biological replicates in duplicate.

[2] = system: P. falciparum clinical isolates; assay: Ex vivo drug susceptibility assay (schizont maturation) on clinical isolates; format: cell-based; settings: ex vivo clinical isolates, n = 15, read-out: P. falciparum median EC50 (range)
Experimental: (§4) Plasmodium isolates were collected from patients attending public health clinics in Timika (Papua, Indonesia), a region endemic for multidrug-resistant strains of P. vivax and P. falciparum ([38][–][40]). Patients with symptomatic malaria presenting to an outpatient facility were recruited into the study if infected with either P. falciparum or P. vivax, with a parasitemia of between 2,000 µL^−1 and 80,000 µL^−1, and the majority (>60%) of asexual parasites at the ring stage of development. Venous blood (5 mL) was collected by venipuncture, and after removal of patient white blood cells using Plasmodipur filters (EuroProxima B.V., The Netherlands), packed infected red blood cells (iRBCs) were used for the ex vivo drug susceptibility assay.
(§5) Drug plates were pre-dosed by diluting the compounds in 50% methanol followed by lyophilization and storage at 4°C. Drug susceptibility of P. vivax and P. falciparum isolates was measured using a protocol modified from the WHO microtest as described previously ([40], [41]). […] A candle jar was used to mature the parasites at 37.0°C for 35–56 h. […] Thick blood films made from each well were stained with 5% Giemsa solution for 30 min and examined microscopically. The number of schizonts per 200 asexual-stage parasites was determined for each drug concentration and normalized to the control well without drug. The dose response data were analyzed using non-linear regression analysis, and the EC50 value was derived using an inhibitory sigmoid Emax model (In Vitro Analysis and Reporting Tool [IVART] [42, 43]).

[3] = system: P. vivax clinical isolates; assay: as above; format: cell-based; settings: ex vivo clinical isolates, n = 6, read-out: P. vivax median EC50 (range)
Experimental: as §4, §5

[4] = system: P. falciparum Dd2 parasites; assay: Fractional inhibitory concentration, artemisinin and MMV1557817 interaction; format: cell-based
Experimental: Fractional inhibitory concentrations (FIC) were determined as previously described ([44]). […] The FIC for each drug was determined by EC50 of drug in a mixture/EC50 of drug alone, and the sum of FIC was determined by the addition of the two individual FIC values. Synergistic FIC is described as <1, additive = 1 < 2, and antagonism > 2 ([44]).

[5] = Metabolic stability in cryopreserved hepatocytes; format: in vitro ADME; settings: pH 7.4, read-out: in vitro hepatocyte CLint
Experimental: Samples were collected over the incubation period, quenched by the addition of an equal volume of acetonitrile, and analyzed using a Waters Acquity UPLC and Xevo G2 QTOF mass spectrometer with positive electrospray ionization under the MS^E mode. The natural log of the substrate concentration was plotted against the incubation time to determine the first-order degradation rate constant which was normalized to the microsomal protein concentration to give the in vitro intrinsic clearance (in vitro CLint, µL/min/mg microsomal protein). […] Cell viability was determined by Trypan Blue exclusion. At various times over the incubation period, samples were quenched with the addition of an equal volume of acetonitrile and analyzed as described above. Metabolite identification was conducted by accurate mass and tandem mass spectrometry (MS/MS) analysis.

[6] = read-out: Inhibition of aminopeptidase activity

Chain of Pv-M1 (A5JZA9 entry or part of it): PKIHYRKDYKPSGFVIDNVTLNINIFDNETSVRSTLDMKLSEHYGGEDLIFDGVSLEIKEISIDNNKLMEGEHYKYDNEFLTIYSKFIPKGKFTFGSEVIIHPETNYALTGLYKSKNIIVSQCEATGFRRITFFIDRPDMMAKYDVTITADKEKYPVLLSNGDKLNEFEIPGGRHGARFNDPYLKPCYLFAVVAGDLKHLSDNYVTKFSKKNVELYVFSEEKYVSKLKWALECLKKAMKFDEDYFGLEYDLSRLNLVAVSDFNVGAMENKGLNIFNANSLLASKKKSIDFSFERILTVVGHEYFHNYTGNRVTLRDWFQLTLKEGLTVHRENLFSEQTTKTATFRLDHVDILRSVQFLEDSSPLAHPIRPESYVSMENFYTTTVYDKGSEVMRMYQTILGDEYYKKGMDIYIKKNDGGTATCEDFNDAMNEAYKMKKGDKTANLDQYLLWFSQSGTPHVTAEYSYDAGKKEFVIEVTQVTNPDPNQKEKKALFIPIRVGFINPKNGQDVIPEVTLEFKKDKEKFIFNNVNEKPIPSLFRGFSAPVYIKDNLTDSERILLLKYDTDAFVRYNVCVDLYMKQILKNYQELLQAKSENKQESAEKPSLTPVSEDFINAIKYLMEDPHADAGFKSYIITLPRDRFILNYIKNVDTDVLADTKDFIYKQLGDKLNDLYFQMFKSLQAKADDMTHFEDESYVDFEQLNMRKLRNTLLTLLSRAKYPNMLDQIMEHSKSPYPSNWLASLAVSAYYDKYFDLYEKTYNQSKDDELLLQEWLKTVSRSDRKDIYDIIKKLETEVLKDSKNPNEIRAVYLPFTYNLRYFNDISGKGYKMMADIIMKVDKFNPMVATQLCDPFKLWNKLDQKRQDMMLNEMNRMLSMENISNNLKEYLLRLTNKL
T1 sequence (O96935 whole entry): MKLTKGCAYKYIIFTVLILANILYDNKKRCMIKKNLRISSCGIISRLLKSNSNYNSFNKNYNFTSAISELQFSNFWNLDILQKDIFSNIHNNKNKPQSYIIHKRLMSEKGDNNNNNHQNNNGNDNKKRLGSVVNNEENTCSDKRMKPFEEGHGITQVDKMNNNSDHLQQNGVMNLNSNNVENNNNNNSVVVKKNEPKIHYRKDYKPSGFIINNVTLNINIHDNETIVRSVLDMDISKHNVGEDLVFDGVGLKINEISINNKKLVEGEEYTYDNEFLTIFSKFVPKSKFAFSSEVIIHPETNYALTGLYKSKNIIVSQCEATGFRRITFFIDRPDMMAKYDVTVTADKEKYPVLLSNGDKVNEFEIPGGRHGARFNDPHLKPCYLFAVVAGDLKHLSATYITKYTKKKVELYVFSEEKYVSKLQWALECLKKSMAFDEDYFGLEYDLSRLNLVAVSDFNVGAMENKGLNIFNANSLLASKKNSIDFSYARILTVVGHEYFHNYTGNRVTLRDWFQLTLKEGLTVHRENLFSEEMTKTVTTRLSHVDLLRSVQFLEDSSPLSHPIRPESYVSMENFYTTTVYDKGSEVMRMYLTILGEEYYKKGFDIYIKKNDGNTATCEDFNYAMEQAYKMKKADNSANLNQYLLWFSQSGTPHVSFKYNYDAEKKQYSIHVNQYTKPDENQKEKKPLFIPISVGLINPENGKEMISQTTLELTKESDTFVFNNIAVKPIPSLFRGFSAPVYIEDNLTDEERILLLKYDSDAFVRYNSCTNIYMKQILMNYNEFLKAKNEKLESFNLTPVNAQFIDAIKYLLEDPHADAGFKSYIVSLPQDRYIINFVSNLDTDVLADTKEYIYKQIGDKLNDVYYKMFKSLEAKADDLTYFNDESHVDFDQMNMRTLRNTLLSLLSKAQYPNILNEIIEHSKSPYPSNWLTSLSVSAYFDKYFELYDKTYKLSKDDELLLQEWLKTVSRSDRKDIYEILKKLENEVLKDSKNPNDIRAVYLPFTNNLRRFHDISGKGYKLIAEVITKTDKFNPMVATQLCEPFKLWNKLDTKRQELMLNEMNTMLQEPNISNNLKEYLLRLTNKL
Chain of Pb-M1 (A0A509ATR4 entry or part of it): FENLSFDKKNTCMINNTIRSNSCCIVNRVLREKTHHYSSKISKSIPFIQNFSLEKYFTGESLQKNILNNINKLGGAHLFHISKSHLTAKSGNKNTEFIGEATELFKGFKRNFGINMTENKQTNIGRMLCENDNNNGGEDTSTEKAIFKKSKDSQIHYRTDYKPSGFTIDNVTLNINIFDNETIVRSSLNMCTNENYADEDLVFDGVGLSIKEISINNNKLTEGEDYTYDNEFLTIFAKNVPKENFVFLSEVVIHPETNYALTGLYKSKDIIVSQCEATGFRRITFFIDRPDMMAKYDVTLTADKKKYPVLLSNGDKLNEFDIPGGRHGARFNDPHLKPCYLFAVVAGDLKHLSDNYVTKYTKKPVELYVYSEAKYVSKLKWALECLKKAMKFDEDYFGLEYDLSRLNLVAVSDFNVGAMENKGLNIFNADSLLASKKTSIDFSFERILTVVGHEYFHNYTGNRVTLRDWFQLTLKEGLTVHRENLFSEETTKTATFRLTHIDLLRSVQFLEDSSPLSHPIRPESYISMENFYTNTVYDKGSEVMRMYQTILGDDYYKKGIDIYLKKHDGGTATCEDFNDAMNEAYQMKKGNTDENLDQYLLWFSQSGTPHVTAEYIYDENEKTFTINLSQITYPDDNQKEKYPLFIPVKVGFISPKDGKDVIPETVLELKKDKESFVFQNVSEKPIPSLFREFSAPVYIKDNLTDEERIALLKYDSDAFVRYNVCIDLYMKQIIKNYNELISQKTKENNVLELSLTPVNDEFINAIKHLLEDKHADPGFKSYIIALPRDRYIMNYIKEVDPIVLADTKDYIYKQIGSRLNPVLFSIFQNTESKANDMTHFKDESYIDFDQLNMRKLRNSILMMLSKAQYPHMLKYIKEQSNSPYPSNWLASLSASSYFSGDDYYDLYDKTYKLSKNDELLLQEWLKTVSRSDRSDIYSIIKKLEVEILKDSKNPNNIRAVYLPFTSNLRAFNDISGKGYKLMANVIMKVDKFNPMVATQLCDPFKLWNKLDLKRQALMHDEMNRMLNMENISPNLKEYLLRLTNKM

| Structure (SMILES) | inhibition at 1.25 µM (PfA-M1; [6]) [%] | inhibition at 10 µM (PfA-M1; [6]) [%] | inhibition at 1.25 µM (Pv-M1; [6]) [%] | inhibition at 10 µM (Pv-M1; [6]) [%] | inhibition at 1.25 µM (Pb-M1; [6]) [%] | IC50 [1] [nM] | EC50 ([2]; Plasmodium falciparum) [nM] | EC50 [2] [nM] | EC50 ([3]; Plasmodium vivax) [nM] | EC50 [3] [nM] | further results |
| --- | --- | --- | --- | --- | --- | --- | --- | --- | --- | --- | --- |
| C[C@H]1[C@H](OC(=O)CCC(=O)O)O[C@@H]2O[C@@]3(C)CC[C@H]4[C@H](C)CC[C@@H]1[C@@]24OO3 [artesunate] | 4.8 | 11.9 | 2.1 | 23.6 | 0 | 16 ± 5 | 1.2 | 1 | 0.6 | 1 | inhibition at 500 µM (PfA-M1; [6]): 16.8%; inhibition at 1000 µM (PfA-M1; [6]): 43.2%; inhibition at 500 µM (Pv-M1; [6]): 74%; inhibition at 1000 µM (Pv-M1; [6]): 68.2%; inhibition at 10 µM (Pb-M1; Pb-M1, 10 µM compound, read-out: Inhibition of aminopeptidase activity): 12.8%; inhibition at 500 µM (Pb-M1; [6]): 81.3%; inhibition at 1000 µM (Pb-M1; [6]): 78.2% |
| CC(C)(C)CC(=O)NC(C(=O)NO)c1ccc(-c2cc(F)c(F)c(F)c2)cc1 (centres unmarked) [MMV1557817, N-(2-(hydroxyamino)−2-oxo-1-(3′,4′,5′-trifluoro-[1,1′-biphenyl]-4-yl)ethyl)-3,3-dimethylbutanamide] | 83 | 100 | 96 | 100 | 94 | 99 | 98 | 98.1 | 69 | 68.6 | Ki (PfA-M1; Pf M1, Morrison equation, read-out: Ki^(app) ± SEM): 308 nM; Ki (Pv-M1): 19 nM; Ki (Pb-M1): 2 ± 0.2 nM; inhibition at 10 µM (Pb-M1; [6]): 100%; MMV1557817 mean FIC ± SEM ([4]; ratio MMV1557817:artemisinin 1:4): 0.87 ± 0.08; MMV1557817 mean FIC ± SEM ([4]; ratio MMV1557817:artemisinin 2:3): 1.13 ± 0.19; MMV1557817 mean FIC ± SEM ([4]; ratio MMV1557817:artemisinin 3:2): 1.10 ± 0.20; MMV1557817 mean FIC ± SEM ([4]; ratio MMV1557817:artemisinin 4:1): 1.05 ± 0.18; MMV1557817 mean FIC ± SEM ([4]; ratio MMV1557817:artemisinin 5:0): 1.00 ± 0.19; hepatocyte CLint at 1 µM ([5]; human cryopreserved hepatocytes): 2 µL/min/1e6 cells; hepatocyte CLint at 1 µM ([5]; rat cryopreserved hepatocytes): 4 µL/min/1e6 cells |
